{
  "source": "patent US20110039770A1",
  "about": "“INHIBITORS OF PROTEIN KINASE C ISOFORMS AND USES THEREOF” (PHARMAGAP INC., priority 2005, published 2011)",
  "test_in_all_cases": "Tetracycline-induced expression of TIM 17 in IMR32 cells, PKC isoform level",
  "format_in_all_cases": "cell-based",
  "key": {"PKC-α": {"target": "PKC-α (Homo sapiens, UniProt P17252)", "design": "endogenous PKC-α in (A) untreated human neuroblastoma (IMR-32) cells; endogenous in cells; host or cells: IMR-32 human neuroblastoma cells", "conditions": "TIM 17 transfected cells + 150 ng/ml tetracycline 48 h; flow cytometry", "description": "(§1) The specificity and efficacy of compound TIM 17 (see Table 28) was tested intracellularly on 3 PKC isoforms (α, δ and ε), which are the main isoforms expressed in the IMR32 neuroblastoma cell lines and neuroblastoma biopsies.\n(§2) The synthetic TIM 17 gene was subcloned into the pREx-DEST31(7559) expression vector and transfected into IMR32 neuroblastoma cells using standard techniques. Transcription of the TIM 17 gene is under the control of a tetracycline promoter that allows gene expression to be switched on and off. Expression of the TIM 17 gene was elicited by treatment with 150 ng/ml of tetracycline for 48 h.\nThe data were acquired from 20,000 to 50,000 individual cells. The graph scales report the number of events measured at the peak of fluorescence while the percentage of cells positive to the specific anti-PKCalpha antibody is shown on the graphs together with the relative intensity (see number provided below the percentage). The relative intensity correlates to the mean intracellular level of PKCalpha in the cell population.\nThe expression level of PKC-α, δ and ε was also assessed by fluorescence imaging using anti-PKC antibodies from SantaCruz and secondary Alexa 488 conjugate from Invitrogen. Microscopic images were obtained from a Coulter microscope equipped with epifluorescence and the images analyzed with ImagePro+ software with the assistance of DAGE-MTI camera. […]"}, "PKC delta": {"target": "PKC delta (Homo sapiens, UniProt Q05655)", "sequence (Q05655 whole entry)": "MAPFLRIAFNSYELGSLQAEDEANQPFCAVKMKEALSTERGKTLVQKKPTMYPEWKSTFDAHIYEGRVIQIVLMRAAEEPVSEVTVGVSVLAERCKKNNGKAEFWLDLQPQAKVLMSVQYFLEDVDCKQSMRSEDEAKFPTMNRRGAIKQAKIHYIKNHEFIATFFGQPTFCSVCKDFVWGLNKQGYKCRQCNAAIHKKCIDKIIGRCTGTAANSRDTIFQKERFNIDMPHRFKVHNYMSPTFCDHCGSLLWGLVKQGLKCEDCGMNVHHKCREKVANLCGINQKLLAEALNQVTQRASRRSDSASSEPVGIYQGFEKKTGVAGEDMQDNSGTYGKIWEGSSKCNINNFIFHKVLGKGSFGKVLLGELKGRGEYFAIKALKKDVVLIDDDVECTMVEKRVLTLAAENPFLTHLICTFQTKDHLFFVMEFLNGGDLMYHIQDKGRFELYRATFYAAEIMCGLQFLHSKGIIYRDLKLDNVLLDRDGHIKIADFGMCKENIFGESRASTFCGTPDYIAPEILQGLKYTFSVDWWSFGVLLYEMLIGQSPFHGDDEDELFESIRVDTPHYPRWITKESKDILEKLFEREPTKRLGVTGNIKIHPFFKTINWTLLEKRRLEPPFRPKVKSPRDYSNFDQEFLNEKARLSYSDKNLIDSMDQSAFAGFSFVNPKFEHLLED", "design": "endogenous in cells", "conditions": "fluorescence imaging; confirmed by Western blot", "description": "as §1, §2\n(§3) The expression level of PKC-α, δ and ε was also assessed by fluorescence imaging using anti-PKC antibodies from SantaCruz and secondary Alexa 488 conjugate from Invitrogen. Microscopic images were obtained from a Coulter microscope equipped with epifluorescence and the images analyzed with ImagePro+ software with the assistance of DAGE-MTI camera. The same gating was maintained constant for all images. […] The above results were also confirmed by Western blot."}, "PKC epsilon": {"target": "T1, PKC epsilon (Homo sapiens, UniProt Q02156)", "T1 sequence (Q02156 1-737)": "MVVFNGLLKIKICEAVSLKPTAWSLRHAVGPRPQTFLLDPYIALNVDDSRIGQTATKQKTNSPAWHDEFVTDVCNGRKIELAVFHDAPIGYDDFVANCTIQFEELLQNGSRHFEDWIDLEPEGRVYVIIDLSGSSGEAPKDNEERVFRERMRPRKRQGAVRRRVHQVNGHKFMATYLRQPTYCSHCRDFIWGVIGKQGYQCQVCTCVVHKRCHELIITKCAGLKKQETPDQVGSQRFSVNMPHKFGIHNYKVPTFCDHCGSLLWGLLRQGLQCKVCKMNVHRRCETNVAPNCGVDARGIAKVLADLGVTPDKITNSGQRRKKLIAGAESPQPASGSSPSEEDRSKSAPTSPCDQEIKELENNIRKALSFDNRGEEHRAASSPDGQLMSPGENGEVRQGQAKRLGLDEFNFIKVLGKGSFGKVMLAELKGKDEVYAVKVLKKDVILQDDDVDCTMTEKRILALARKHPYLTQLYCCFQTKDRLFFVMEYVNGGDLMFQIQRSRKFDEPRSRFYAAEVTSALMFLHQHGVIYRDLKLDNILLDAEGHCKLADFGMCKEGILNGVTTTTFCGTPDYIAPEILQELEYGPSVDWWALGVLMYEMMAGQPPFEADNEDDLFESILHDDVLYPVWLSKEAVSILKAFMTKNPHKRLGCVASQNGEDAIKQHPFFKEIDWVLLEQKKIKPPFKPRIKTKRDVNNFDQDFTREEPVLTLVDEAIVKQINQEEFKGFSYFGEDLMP", "design": "endogenous in cells", "conditions": "fluorescence imaging; confirmed by Western blot", "description": "as §1, §2, §3"}},
  "data": [
    {"substance": "FRRKFRL—(G)7—KDAQNLIGISI [TIM 17]", "values": [
      {"measurement": "percentage of cells expressing similar levels of PKCalpha as controls", "setting": "PKC-α", "value": 30, "unit": "%"},
      {"measurement": "percentage of population with dramatic decrease in PKC alpha cellular content", "setting": "PKC-α", "value": 69.8, "unit": "%"},
      {"measurement": "intracellular level of PKC delta", "setting": "PKC delta", "value": "did not, however, alter the intracellular level"},
      {"measurement": "intracellular level of PKC epsilon", "setting": "PKC epsilon", "value": "did not, however, alter the intracellular level"}
    ]}
  ]
}
